From article PMC7822816, “Halo-fluorescein for photodynamic bacteria inactivation in extremely acidic conditions” (Nature Communications, 2021) come the findings set out here.

Molecules are shown by their SMILES. pIC50: −log10 of the molar value.

One data set relates to Salmonella. The data set is described as follows: IC50 of photodynamic inactivation, Salmonella. As to conditions: 10 min, pH 2.5, read-out: IC50 (Salmonella).
In data set [1] the test system is C. albicans infection of oral mucosa.
Source text: The extremely acidic environment was constructed through changing the pH of the mucosa and diluting PSs in pH 3.0 PBS buffer. […] During the investigations, the infected ICR mice were divided into six groups (six mice per group): blank, light, TIF, TIF + light, Ce 6 + light, and Zn-tpp + light. For comparison and better visualization of the infection, a normal group (no infection) was also included.
To construct the oral mucosal infection model, cotton balls immersed in solutions containing 10^8 CFU/mL of C. albicans were placed in the mouth of mice for 75 min. At day 1 and day 3, 50 μL pH 3.0 PBS and PSs (20 μM, diluted by pH 3.0 PBS) were added to oral mucosa, and treated with different lasers (510 nm for TIF, 660 nm for Ce 6 and Zn-tpp, 50 mW/cm^2) for 10 min.
To investigate the therapy effect, photographs, colonies, weights, and pathology index of mice were taken every other day. After day 3, one mouse in each group was sacrificed, and the tissues of oral mucosa were harvested for hematoxylin and eosin (H&E) staining. The pathology index was evaluated based on the standard given in Supplementary Table 10.
For data set [2], the system named is broad band of aciduric bacteria. In words: Photodynamic inactivation, summary over aciduric bacteria. Particulars: read-out: IC50 (broad band of aciduric bacteria).
Procedure: (§1) For quantitative comparison, the half-maximal inhibitory concentrations (IC50) of TIF for these bacterial were measured (Supplementary Table 6, and Supplementary Figs. 51–58).
(§2) The bacteria were cultured overnight in a constant temperature oscillator (37 °C, 170 r/min, the specific culture conditions were listed in Supplementary Table 6). Suspensions of bacteria (100 μL, diluted 1000-folds, PBS) were added with different concentration PSs (final volume of 1 mL), and irradiated with LED (λ = 520 nm, 35 mW/cm^2) for 10 min. Then, the treated bacteria liquid (100 μL) were added into the culture medium and cultured in a 24-well plate. The OD600 of bacteria was measured to obtain the bacteria CFUs, and the survival rate were calculated as C/C0 × 100%, where C is the CFU of sample which treated with PSs and light, and C0 is the blank without any treatment. All photodynamic sterilizations were carried out in at least three replicates.
Data set [3] can be described thus: Relative singlet oxygen quantum yield (1O2 phosphorescence, Rose Bengal standard). The format is physicochemical. On the set-up: key: relative to Rose Bengal standard (ΦΔ = 0.75). Particulars: pH = 10 media; relative, RB as the standard. As to the method:
To permit the open-form structure of all fluorescein derivatives, all the measurements were carried out in pH = 10 media.
The singlet oxygen quantum yields (ΦΔ) of all fluorescein-based PSs were evaluated with Rose Bengal as the standard (ΦΔ = 0.75):1 ΦΔ=AsAbsorption/As(Emission)×ARB(Emission)/ARB(Absorption)×0.75 Here, the area of absorption (RB and PSs) was collected with an integrating sphere (λex = 510 nm), while the area of emission was obtained from the characterized 1270 nm ^1O2 phosphorescence emission. For collection of such emission, CH3CN and D2O mixed solvent (v (D2O): v (CH3CN) = 1:15, pH = 9.0, adjusted with 0.001 M NaOH) was used, since H2O can severely quench the singlet oxygen luminescence. For all the measurements, the concentrations of the PSs were set at 10 μM.
S6.3 Relative singlet oxygen quantum yield
The singlet O2 quantum yield of photosensitizers were measured by Fluolog-3 spectrofluorometer with an integration sphere (IS80, Labsphere) and NIR detector (Hamamatsu H-10330) in this work.
For better collection of the characterized singlet oxygen phosphorescence emission (1275 nm), CH3CN and D2O mixed solvent was used (H2O can severely quench the singlet oxygen luminescence). The 10 mM stock solutions in CH3CN and D2O mixed solvent (VCH3CN:VD2O = 15:1) were first prepared. The stock solutions were diluted to 10 μM, and the final volume was 2 mL. In addition, the CH3CN and D2O mixed solvent as blank was also prepared.
1. Turn on the instrument and the start software, the light source is xenon lamp.
2. From the experiment menu, selected spectra, emission. The 1O2 emission phosphorescence spectra are first measured.
3. The parameters setting are listed: a. Excitation wavelength: 510 nm

In the next data set the test system is L. plantarum. In words: IC50 of photodynamic inactivation, L. plantarum. Particulars: Lactiplantibacillus plantarum, 10 min, pH 2.5, read-out: IC50 (L. plantarum).
Data set [4] is classed as physicochemical. As to conditions: buffer, 5 min, pH 3. As to the method: Next, the influence of the added TIF to jucies after photodynamic sterilization was further investigated from the following two aspects. First, like many other dyes, TIF experienced photo-bleaching upon photo irradiation. As shown in Supplementary Fig. 69, in the presence of green LED irradiation (520 nm, 50 mW/cm^2), the absorbance of TIF decreased rapidly in 5 min (with ~22% remaining). In other words, most of the added TIF in juices is expected to lose the ability of ROS generation after the first photodynamic sterilization process. Second, the ingredients inside the juices before and after TIF-involved photodynamic sterilization were evaluated. Here, the investigations were concentrated on antioxidants due to the high activity of ROS[42]. Three representative antioxidants, namely, ascorbic acid (vitamin C), phenolic compounds, and flavonoid, were chosen. […] Besides, the color, flavor, and texture of the juices were roughly evaluated through visual observation and smelling (method supplied in the Chinese National Standard GB/T 31121-2014), no appreciable changes were observed before and after TIF-based photodynamic sterilization. […]
(1) The photo-bleaching of TIF. […] As can be seen from Figure R3 below, in the presence of green LED irradiation (520 nm, 50 mW/cm2), the absorbance of TIF decreased rapidly in 5 min (with ~22% remaining). […]

The subject of another data set is E. coli. In words: IC50 / growth inhibition of photodynamic inactivation, E. coli.
For the next data set, the system named is C. albicans. In words: IC50 of photodynamic inactivation, C. albicans. Particulars: Candida albicans, 10 min, pH 3, read-out: IC50 (C. albicans).
In a further data set the test system is MRSA. In words: IC50 / growth inhibition of photodynamic inactivation, MRSA. It is filed as cell-based, methicillin-resistant S. aureus.
The test system of the next data set is S. aureus. In words: IC50 of photodynamic inactivation, S. aureus. As to conditions: Staphylococcus aureus, 10 min, pH 2.5, read-out: IC50 (S. aureus).

Procedure for E. coli: as §2
(§3) Growth inhibition of E. coli by different concentrations of TIF.
(§4) Irradiation: 520 nm green LED (6 mW/cm2), 10 min. Error bars = Standard Deviation (n=6).
(§5) Growth inhibition of Salmonella by different concentrations of
(§6) TIF. Irradiation: 520 nm green LED (6 mW/cm2), 10 min.
Procedure for L. plantarum: as §1
(§7) S. aureus and MRSA, and C. albicans were provided by West China Hospital of Stomatology, Sichuan University. A. acidoterrestris, S. enterica, H. pylori, L. plantarum, and E. coli were provided by College of Life Science, Sichuan University. The bacteria were cultured overnight in a constant temperature oscillator (37 °C, 170 r/min, the specific culture conditions were listed in Supplementary Table 6). Suspensions of bacteria (100 μL, diluted 1000-folds, PBS) were added with different concentration PSs (final volume of 1 mL), and irradiated with LED (λ = 520 nm, 35 mW/cm^2) for 10 min. Then, the treated bacteria liquid (100 μL) were added into the culture medium and cultured in a 24-well plate. The OD600 of bacteria was measured to obtain the bacteria CFUs, and the survival rate were calculated as C/C0 × 100%, where C is the CFU of sample which treated with PSs and light, and C0 is the blank without any treatment. All photodynamic sterilizations were carried out in at least three replicates.
Procedure for S. aureus: as §1, §7
Procedure for Salmonella: as §2, §3, §4, §5, §6

Regarding `O=C(O)c1ccccc1-c1c2cc(I)c(=O)c(I)c-2oc2c(I)c(O)c(I)cc12` [TIF, 2′,4′,5′,7′-tetraiodofluorescein], the negative logarithm of the IC50 (pIC50) – broadly, the negative decadic logarithm of the IC50, by convention in mol/L – was 6.20 with Salmonella; above 5.96 in [2]; 8.00 with L. plantarum; 6.68 with E. coli (Escherichia coli, 10 min, pH 2.5, read-out: IC50 (E. coli)); 5.98 in the data set with C. albicans; 6.47 with MRSA (Staphylococcus aureus, 10 min, pH 2.5, LED 520 nm, 35 mW/cm^2, 10 min). The pIC50 in the data set on S. aureus is 6.43. In addition, in data set [1] (TIF + light group), the “pseudo membrane on tongue” value was “disappeared gradually”. Moreover, in [1] (TIF + light group, within 7 days), the “body weight loss of infected mice” value is on record as “least loss”. Moreover, the pathology index result in data set [1] (TIF + light group, 20 μM in pH 3.0 PBS, 510 nm 50 mW/cm^2 10 min, day 1 and day 3) is “remained almost unchanged”. The “H&E staining of tongue sections, without light” value in [1] (TIF group, no light) was “large amounts of inflammation infiltration”. Besides, the “H&E staining of tongue sections, with light” value in data set [1] (photosensitizer + light (510 nm TIF, 660 nm Ce 6 and Zn-tpp)) is listed as “generally similar to that of the normal group”. Besides, the “singlet oxygen quantum yield (ΦΔ)” value in data set [3] was found to be 0.64. Also, the “absorbance remaining after photo-bleaching” value in [4] is reported as ~ 22%. Also, the Inhibition ratio is above 99.3% in the data set with E. coli (E.coli, dose 0.5 μM, 3 V/3 W, 6 mW/cm2, 10 min) and above 97.1% with MRSA (dose 2.0 μM, 3 V/3 W, 6 mW/cm2, 10 min).
